“Also recorded” adds a separate entry of the source.
How the values were obtained:
[1] = system: vasomotor symptoms of patients treated with tamoxifen; test: Separate uncontrolled experiences to control vasomotor symptoms of patients treated with tamoxifen; format: in vivo, women; conditions: given to patients treated with tamoxifen
invasive breast cancer = conditions: cited from earlier work
[2] = system: hot flushes among breast cancer survivors under tamoxifen adjuvant therapy
[3] = system: breast cancer survivors women; test: Clinical practice: 1,600 breast cancer survivors treated with tamoxifen, adverse effects; format: in vivo
Excerpt: The improvements in recurrence-free survival and in overall survival have been between the ranges reported by the published literature. However, into the total treated group, we have found only one case of endometrial cancer, well differentiated and of small size (table 2).
Many of these women had recently stopped HRT, at the time the diagnosis of breast cancer was made.

[4] = usual-care n = 46 (six months), intervention n = 90 (end of study), tamoxifen 20 mg/day, BNO 1055 20 mg twice a day
[5] = usual-care n = 46, intervention n = 90

With Clc1cccc(Cl)c1N=C1NCCN1 [clonidine] the “control of vasomotor symptoms / severe hot flushes” value [1] was “very unsatisfactory results; also recorded: failed to reach a satisfactory control”.
With CC(=O)[C@H]1CC[C@H]2[C@@H]3CCC4=CC(=O)CC[C@]4(C)[C@H]3CC[C@]12C [progesterone] the “control of vasomotor symptoms / severe hot flushes” value [1] was “very unsatisfactory results; also recorded: failed to reach a satisfactory control”.
In the case of CC/C(=C(\c1ccccc1)c1ccc(OCCN(C)C)cc1)c1ccccc1 [Tamoxifen, Z-2-[4-(1,2-diphenyl-1-butenyl)phenoxy]-N,N-dimethyl-ethylamine], the “reduction of the risk of invasive breast cancer” value (invasive breast cancer; 20 mg/day, 69 months of follow-up) is given as 49%, the “effect on ER-negative tumors” value (invasive breast cancer; 20 mg/day) is given as “no effect” and the “incidence of adverse events, including endometrial cancer” value (invasive breast cancer; women younger than 50) is given as “no increased incidence”. For the same compound, the “decline of bimonthly reported numbers of hot flushes from baseline” value ([2]; baseline vs six months of tamoxifen adjuvant therapy, severe or moderate hot flushes, not significant, P=0.71) was 5 to 9%, the “minor adverse events, number” value ([2]; during the study) was “seven” and the serious events ([2]; during the study) was “No serious events”. The “Hot Flushes Severe, number of patients” value [2, 4] was 34, the “Hot Flushes Severe, proportion of patients” value [2, 4] was 73.9% and the “Hot Flushes Moderate, number of patients” value [2, 5] was 12. For the same compound, the “Hot Flushes Moderate, proportion of patients” value [2, 5] was 26.1%, the “patients who reported hot flushes” value ([3]; postmenopausal patients, tamoxifen 20 mg/day) was 25% and the “patients who reported hot flushes” value ([3]; premenopausal women, mostly severe, tamoxifen 20 mg/day) was “up to 74%”. The withdrawal ([3]; tamoxifen 20 mg/day) was < 5% and the “cases of endometrial cancer” value ([3]; total treated group (1,600), well differentiated and of small size) was “one”.
With Vitamin E the “control of vasomotor symptoms / severe hot flushes” value [1] was “very unsatisfactory results; also recorded: failed to reach a satisfactory control”.

— patent US20040202736A1, “Method of ameliorating side-effects of SERMs” (Pharmaton S.A., priority 2003, published 2004)
